The values that follow come from patent US20200392158A1, “INHIBITORS OF LEUCINE RICH REPEAT KINASE 2” (GLAXOSMITHKLINE INTELLECTUAL PROPERTY DEVELOPMENT LIMITED, priority 2017, published 2020).

Where only a bound is given, the exact number is not on record here.

Test [1] addresses T1, full length G2019 human LRRK2 (Homo sapiens, UniProt Q5S007, R50H).
T1 construct: made in house; host or cells: HEK293 6E cells transduced with BacMam virus (virus generated in Sf9 cells)
Briefly: Full length G2019 human LRRK2 inhibition mass spectrometry assay. The test is classed as biochemical. As to conditions: LRRKtide to phospho-LRRKtide conversion, RapidFire MS, 2 mM ATP. Put shortly:
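Purified full-length Flag-tagged G2019 LRRK2, ~25 nM, with 25 μM LRRKtide and 2 mM ATP in 50 mM Hepes pH 7.2, 10 mM MgCl2, 150 mM NaCl, 1 h at room temperature. Quenched with formic acid; phospho- and unphosphorylated LRRKtide measured by RapidFire MS. pIC50 from 4-parameter fit of % conversion, 11 points, top 100 μM.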

For test [2], the target named is T2, LRRK2 kinase in SH-SY5Y cells over-expressing recombinant full length LRRK2 (Homo sapiens, UniProt Q5S007).
T2 construct: A BacMam virus expressing full length recombinant LRRK2 was purchased from Invitrogen; host or cells: SH-SY5Y human neuroblastoma cells transduced with BacMam LRRK2 virus
Put plainly: Recombinant cellular LRRK2 AlphaScreen assay (LRRK2 Ser935 phosphorylation). The test is classed as cell-based. As to conditions: 60 min. In outline:
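SH-SY5Y cells transduced with BacMam full-length LRRK2 (MOI 50) for 24 h, then treated 60 min at 37 °C with compound (11-point 1:4 series, top 10 uM, 0.1% DMSO). Lysates probed by AlphaScreen for pSer935 vs total LRRK2; values fitted to a sigmoidal dose-response model.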
(Alpha assays give light when donor and acceptor beads are brought close together.)

T1 sequence (Q5S007 with tags, fused parts or gaps R50H): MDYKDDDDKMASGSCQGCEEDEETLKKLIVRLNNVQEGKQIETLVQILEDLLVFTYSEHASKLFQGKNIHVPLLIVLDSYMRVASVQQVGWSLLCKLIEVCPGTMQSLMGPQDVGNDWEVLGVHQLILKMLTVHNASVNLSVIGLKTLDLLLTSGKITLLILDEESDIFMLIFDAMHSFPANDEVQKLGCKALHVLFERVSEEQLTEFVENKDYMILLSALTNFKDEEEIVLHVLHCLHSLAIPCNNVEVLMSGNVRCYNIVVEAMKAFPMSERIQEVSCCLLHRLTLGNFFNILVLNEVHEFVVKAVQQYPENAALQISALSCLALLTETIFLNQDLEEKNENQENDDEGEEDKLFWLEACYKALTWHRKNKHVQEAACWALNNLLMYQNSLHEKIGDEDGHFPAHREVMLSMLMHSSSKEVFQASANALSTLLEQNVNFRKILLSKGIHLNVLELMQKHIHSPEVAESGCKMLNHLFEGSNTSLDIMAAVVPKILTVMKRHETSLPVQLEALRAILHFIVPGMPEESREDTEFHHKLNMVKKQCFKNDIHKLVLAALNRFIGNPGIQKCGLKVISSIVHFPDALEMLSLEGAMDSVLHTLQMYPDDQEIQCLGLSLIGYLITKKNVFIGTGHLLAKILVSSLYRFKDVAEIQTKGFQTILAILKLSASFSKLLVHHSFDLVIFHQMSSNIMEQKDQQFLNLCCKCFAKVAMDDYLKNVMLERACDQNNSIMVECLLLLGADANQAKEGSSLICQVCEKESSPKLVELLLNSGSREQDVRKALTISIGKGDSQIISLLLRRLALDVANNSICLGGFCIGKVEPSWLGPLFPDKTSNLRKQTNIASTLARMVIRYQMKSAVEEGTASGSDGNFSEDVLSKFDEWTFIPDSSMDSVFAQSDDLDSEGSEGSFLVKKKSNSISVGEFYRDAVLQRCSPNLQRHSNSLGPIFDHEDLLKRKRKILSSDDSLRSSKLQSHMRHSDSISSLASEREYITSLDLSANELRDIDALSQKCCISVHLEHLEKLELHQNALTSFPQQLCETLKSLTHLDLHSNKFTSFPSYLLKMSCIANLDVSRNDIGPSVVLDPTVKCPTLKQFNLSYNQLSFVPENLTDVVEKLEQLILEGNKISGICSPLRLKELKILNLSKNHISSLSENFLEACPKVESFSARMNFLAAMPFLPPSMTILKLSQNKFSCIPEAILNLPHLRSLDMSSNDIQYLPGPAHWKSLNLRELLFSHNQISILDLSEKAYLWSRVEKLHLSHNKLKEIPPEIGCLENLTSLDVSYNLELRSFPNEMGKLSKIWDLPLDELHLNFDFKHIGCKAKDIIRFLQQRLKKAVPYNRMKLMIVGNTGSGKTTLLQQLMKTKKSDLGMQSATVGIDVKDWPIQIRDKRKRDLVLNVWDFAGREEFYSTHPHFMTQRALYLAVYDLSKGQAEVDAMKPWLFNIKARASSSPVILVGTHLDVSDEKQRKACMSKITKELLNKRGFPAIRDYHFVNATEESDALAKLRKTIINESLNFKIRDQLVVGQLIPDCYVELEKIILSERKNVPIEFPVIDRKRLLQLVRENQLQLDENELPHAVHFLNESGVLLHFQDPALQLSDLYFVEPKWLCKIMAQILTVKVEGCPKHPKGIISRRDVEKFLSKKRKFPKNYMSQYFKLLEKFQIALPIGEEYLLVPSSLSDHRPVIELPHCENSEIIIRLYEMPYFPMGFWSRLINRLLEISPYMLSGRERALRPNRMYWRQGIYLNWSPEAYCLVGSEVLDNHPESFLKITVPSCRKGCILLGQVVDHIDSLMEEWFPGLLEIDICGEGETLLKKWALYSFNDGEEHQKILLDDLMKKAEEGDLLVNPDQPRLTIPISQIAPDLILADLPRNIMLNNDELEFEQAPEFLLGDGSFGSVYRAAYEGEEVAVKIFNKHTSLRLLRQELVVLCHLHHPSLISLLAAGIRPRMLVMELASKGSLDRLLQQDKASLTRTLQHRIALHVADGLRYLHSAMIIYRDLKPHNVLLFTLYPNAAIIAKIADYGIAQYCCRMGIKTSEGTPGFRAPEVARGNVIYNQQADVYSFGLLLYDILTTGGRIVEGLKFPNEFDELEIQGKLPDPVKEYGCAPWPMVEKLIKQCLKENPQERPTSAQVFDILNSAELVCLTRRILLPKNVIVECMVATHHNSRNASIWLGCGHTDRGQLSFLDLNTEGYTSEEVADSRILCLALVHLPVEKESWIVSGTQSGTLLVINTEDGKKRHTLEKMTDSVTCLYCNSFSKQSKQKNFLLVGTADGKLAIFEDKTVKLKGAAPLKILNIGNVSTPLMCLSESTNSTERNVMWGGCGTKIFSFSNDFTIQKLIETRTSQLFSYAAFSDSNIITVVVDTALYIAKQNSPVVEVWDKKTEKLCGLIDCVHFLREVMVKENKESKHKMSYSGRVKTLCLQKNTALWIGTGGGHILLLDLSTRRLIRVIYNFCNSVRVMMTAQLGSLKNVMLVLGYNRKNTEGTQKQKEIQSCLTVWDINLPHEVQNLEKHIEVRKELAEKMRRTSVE
T2 sequence (Q5S007 whole entry): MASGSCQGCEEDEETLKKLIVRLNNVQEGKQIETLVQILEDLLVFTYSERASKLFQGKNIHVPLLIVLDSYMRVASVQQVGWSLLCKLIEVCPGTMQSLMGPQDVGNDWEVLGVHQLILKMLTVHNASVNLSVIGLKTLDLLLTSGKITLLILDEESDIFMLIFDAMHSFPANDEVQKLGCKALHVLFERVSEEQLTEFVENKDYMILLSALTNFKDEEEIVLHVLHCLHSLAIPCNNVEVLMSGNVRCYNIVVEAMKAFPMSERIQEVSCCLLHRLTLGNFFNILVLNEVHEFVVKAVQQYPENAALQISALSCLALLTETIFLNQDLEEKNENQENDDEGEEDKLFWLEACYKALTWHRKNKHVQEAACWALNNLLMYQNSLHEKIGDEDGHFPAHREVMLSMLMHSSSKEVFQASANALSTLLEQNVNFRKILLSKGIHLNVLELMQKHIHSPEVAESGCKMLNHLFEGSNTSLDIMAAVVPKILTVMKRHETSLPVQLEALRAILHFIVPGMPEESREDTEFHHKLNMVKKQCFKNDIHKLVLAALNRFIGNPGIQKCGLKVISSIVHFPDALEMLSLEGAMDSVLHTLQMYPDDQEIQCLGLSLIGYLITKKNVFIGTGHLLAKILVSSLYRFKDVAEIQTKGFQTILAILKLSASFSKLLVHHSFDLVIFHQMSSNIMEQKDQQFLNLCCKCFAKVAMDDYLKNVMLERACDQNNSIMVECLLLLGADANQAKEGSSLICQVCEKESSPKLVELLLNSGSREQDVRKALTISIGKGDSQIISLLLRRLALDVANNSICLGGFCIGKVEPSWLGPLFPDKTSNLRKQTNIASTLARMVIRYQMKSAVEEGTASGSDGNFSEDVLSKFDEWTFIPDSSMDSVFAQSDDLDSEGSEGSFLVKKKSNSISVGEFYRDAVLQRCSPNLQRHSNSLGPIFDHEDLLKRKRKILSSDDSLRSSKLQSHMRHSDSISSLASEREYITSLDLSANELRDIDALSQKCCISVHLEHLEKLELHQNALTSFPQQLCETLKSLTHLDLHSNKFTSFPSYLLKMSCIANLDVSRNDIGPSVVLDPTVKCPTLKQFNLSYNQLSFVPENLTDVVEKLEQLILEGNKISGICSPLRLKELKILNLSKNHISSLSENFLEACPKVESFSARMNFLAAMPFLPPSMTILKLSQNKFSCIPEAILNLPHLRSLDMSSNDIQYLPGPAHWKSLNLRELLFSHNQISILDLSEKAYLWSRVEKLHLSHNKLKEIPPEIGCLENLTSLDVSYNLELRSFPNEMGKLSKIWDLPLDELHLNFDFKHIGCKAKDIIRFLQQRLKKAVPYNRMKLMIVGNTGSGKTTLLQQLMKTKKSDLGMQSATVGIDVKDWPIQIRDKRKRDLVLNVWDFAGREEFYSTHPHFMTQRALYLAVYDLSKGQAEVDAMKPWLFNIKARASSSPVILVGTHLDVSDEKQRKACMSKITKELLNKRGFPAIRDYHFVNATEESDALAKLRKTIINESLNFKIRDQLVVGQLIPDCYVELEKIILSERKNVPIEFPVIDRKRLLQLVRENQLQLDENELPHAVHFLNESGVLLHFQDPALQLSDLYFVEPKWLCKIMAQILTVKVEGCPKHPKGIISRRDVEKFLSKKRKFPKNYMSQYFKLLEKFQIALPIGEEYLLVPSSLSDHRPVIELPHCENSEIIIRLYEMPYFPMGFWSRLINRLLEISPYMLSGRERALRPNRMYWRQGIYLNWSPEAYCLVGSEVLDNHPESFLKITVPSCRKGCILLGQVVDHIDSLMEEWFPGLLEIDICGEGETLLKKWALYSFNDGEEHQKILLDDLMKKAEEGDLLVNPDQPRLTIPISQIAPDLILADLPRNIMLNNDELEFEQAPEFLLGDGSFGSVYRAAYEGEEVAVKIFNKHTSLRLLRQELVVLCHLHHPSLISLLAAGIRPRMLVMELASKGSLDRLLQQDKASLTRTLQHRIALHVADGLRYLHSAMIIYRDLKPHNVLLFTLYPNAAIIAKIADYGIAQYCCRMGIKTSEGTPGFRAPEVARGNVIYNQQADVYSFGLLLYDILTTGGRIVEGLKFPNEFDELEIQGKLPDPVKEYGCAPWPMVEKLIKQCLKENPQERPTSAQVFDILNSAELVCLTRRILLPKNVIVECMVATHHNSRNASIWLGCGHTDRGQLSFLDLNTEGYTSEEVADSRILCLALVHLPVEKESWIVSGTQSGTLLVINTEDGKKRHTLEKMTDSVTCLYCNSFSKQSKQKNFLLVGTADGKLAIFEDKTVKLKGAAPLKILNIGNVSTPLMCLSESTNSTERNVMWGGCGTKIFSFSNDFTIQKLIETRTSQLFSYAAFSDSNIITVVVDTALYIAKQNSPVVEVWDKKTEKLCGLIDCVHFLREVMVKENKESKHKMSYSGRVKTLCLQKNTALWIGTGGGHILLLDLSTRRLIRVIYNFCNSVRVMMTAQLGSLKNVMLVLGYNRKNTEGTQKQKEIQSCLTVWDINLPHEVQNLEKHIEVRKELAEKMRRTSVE

The IC50 is the point on the concentration scale where inhibition reaches its midpoint. Regarding `COC1CNc2nc(ncc2C(F)(F)F)Nc2c(nn(C3CCOCC3)c2C)OC1` (single isomer, unassigned) [E121, 10-methoxy-4-methyl-5-(oxan-4-yl)-14-(trifluoromethyl)-8-oxa-2,5,6,12,16,17-hexaazatricyclo[11.3.1.0^3,7] heptadeca-1(16),3,6,13(17),14-pentaene], the IC50 in test [1] and in test [2] was at most 0.1 µM throughout.

For `Cc1c2c(nn1CCN1CCOCC1)OCCC(C)Nc1nc(ncc1Cl)N2` (single isomer, unassigned) [E213, 14-Chloro-4,11-dimethyl-5-[2-(morpholin-4-yl)ethyl]-8-oxa-2,5,6,12,16,17-hexaazatricyclo[11.3.1.0^3,7] heptadeca-1(16),3,6,13(17),14-pentaene], the IC50 in test [1] and in test [2] was at most 0.1 µM each time.

Take `Cc1c2c(nn1CC(C)(C)O)OCCC(C)Nc1nc(ncc1Cl)N2` (single isomer, unassigned) [E265, 1-{14-Chloro-4,11-dimethyl-8-oxa-2,5,6,12,16,17-hexaazatricyclo[11.3.1.0^3,7]heptadeca-1(17),3,6,13,15-pentaen-5-yl}-2-methylpropan-2-ol]: the IC50 in test [1] and in test [2] was at most 0.1 µM throughout.

Take `C[C@@H]1CCOc2n[nH]c(Cl)c2Nc2ncc(Cl)c(n2)N1` [E397, (11R)-4,14-Dichloro-11-methyl-8-oxa-2,5,6,12,16,17-hexaazatricyclo[11.3.1.0^3,7]heptadeca-1(16),3,6,13(17),14-pentaene]: the IC50 in test [1] and in test [2] was at most 0.1 µM in each case.

In the case of `Cc1c2c(nn1C1CN(C3CCOCC3)C1)OCC[C@@H](C)Nc1nc(ncc1Cl)N2` [E365, (11R)-14-Chloro-4,11-dimethyl-5-[1-(oxan-4-yl)azetidin-3-yl]-8-oxa-2,5,6,12,16,17-hexaazatricyclo[11.3.1.0^3,7]heptadeca-1(16), 3,6,13(17),14-pentaene], the IC50 in test [1] and in test [2] was at most 0.1 µM each time.

With `COCC1CCOc2nn(C3CCOCC3)c(C)c2Nc2ncc(Cl)c(n2)N1` (single isomer, unassigned) [E35, 14-chloro-11-(methoxymethyl)-4-methyl-5-(oxan-4-yl)-8-oxa-2,5,6, 12,16,17-hexaazatricyclo-[11.3.1.0^3,7]heptadeca-1(16),3,6,13(17),14-pentaene], the IC50 in test [1] and in test [2] was at most 0.1 µM in each case.

For `Cc1c2c(nn1C1CCOCC1)OCCCNc1nc(ncc1C(C)C)N2` [E428, 4-Methyl-5-(oxan-4-yl)-14-(propan-2-yl)-8-oxa-2,5,6,12,16,17-hexaazatricyclo[11.3.1.0^3,7]heptadeca-1(16),3,6,13(17),14-pentaene], the IC50 in test [1] was at most 10 µM; in test [2], over 10 µM.

As for `Cc1c2c(nn1CCN1CCC(F)C1)OCCC(C)Nc1nc(ncc1Cl)N2` (single isomer, unassigned) [E218, 14-Chloro-5-[2-(3-fluoropyrrolidin-1-yl)ethyl]-4,11-dimethyl-8-oxa-2,5,6,12,16,17-hexaazatricyclo [11.3.1.0^3,7] heptadeca-1(16),3,6,13(17),14-pentaene], the IC50 in test [1] and in test [2] was at most 0.1 µM each time.

On to `Cc1[nH]nc2c1Nc1ncc(Cl)c(n1)N[C@H](C)CCO2` [E394, (11R)-14-Chloro-4,11-dimethyl-8-oxa-2,5,6,12,16,17-hexaazatricyclo[11.3.1.0^3,7]heptadeca-1(16),3,6,13(17),14-pentaene], for which the IC50 in test [1] and in test [2] was at most 0.1 µM in each case.

On to `Cc1c2c(nn1C1CCOCC1)OCCCOc1nc(ncc1Cl)N2` [E110, 14-Chloro-4-methyl-5-(oxan-4-yl)-8,12-dioxa-2,5,6,16,17-pentaazatricyclo[11.3.1.0^3,7]heptadeca-1(16),3,6,13(17),14-pentaene], for which the IC50 in test [1] and in test [2] was at most 0.1 µM in each case.

`Cc1c2c(nn1C1CCOCC1)OCC(C)CNc1nc(ncc1Cl)N2` (single isomer, unassigned) [E136, 14-chloro-4,10-dimethyl-5-(oxan-4-yl)-8-oxa-2,5,6,12,16,17-hexaazatricyclo[11.3.1.0^3,7]heptadeca-1(16),3,6,13(17),14-pentaene]: the IC50 in test [1] and in test [2] was at most 0.1 µM throughout.

On to `Cc1c2c(nn1C1CN(C3CCCOC3)C1)OCC[C@@H](C)Nc1nc(ncc1Cl)N2` (stereo partly drawn) [E385, (11R)-14-Chloro-4,11-dimethyl-5[1-(oxan-3-yl)azetidin-3-yl]-8-oxa-2,5,6,12,16,17-hexaazatricyclo[11.3.1.0^3,7]heptadeca-1(16),3,6,13(17),14-pentaene], for which the IC50 in test [1] and in test [2] was at most 0.1 µM throughout.

For the compound `Cc1c2c(nn1C1CCOC1)OCCCNc1nc(ncc1C(F)(F)F)N2` (single isomer, unassigned) [E127, 4-methyl-5-(oxolan-3-yl)-14-(trifluoromethyl)-8-oxa-2,5,6,12,16,17-hexaazatricyclo[11.3.1.0^3,7]heptadeca-1(16),3,6,13(17),14-pentaene], the IC50 in test [1] and in test [2] was at most 0.1 µM each time.

With `Clc1cnc2nc1NCCCOc1nn(C3CCOC3)c(Cl)c1N2` (single isomer, unassigned) [E145, 4,14-Dichloro-5-(oxolan-3-yl)-8-oxa-2,5,6,12, 16,17-hexaaza tricyclo[11.3.1.0^3,7]heptadeca-1(16),3,6,13(17), 14-pentaene], the concentration for half-maximal inhibition (IC50) in test [1] and in test [2] was at most 0.1 µM throughout.

In the case of `Cc1c2c(nn1C1COC1)OCCCNc1nc(ncc1Cl)N2` [E12, 14-Chloro-4-methyl-5-(oxetan-3-yl)-8-oxa-2,5,6,12,16,17-hexaazatricyclo[11.3.1.0^3,7]heptadeca-1(16),3,6,13(17),14-pentaene], the IC50 in test [1] and in test [2] was at most 0.1 µM in each case.

As to `Cc1c2c(nn1C1CCC(N3CCOCC3)C1)OCCCNc1nc(ncc1Cl)N2` (single isomer, unassigned) [E369, 14-Chloro-4-methyl-5-[3-(morpholin-4-yl)cyclopentyl]-8-oxa-2,5,6,12,16,17-hexaazatricyclo[11.3.1.0^3,7] heptadeca-1(16),3,6,13(17),14-pentaene], the IC50 in test [1] and in test [2] was at most 0.1 µM in each case.

`Cc1c2c(nn1C(C)(C)C#N)OCCCNc1nc(ncc1Cl)N2` [E191, 2-{14-Chloro-4-methyl-8-oxa-2,5,6,12,16,17-hexaazatricyclo [11.3.1.0^3,7]heptadeca-1(16),3,6,13(17),14-pentaen-5-yl}-2-methylpropanenitrile]: the IC50 in test [1] and in test [2] was at most 0.1 µM in each case.

For `Cc1c2c(nn1C1CC(N3CCOCC3)C1)OCCCNc1nc(ncc1Cl)N2` (stereo not shown) [E45, 14-Chloro-4-methyl-5-[3-(morpholin-4-yl)cyclobutyl]-8-oxa-2,5,6,12,16,17-hexaaza tricyclo[11.3.1.0^3,7]heptadeca-1(16),3,6,13(17),14-pentaene], the 50% inhibitory concentration (IC50) in test [1] and in test [2] was at most 0.1 µM throughout.

Turning to `Cc1c2c(nn1C1CCC(N3C[C@H]4C[C@@H]3CO4)CC1)OCCC(C)Nc1nc(ncc1Cl)N2` (single isomer, unassigned) [E57], the IC50 in test [1] and in test [2] was at most 0.1 µM in each case.

As to `Cc1c2c(nn1C1COCCC1(F)F)OCC[C@@H](C)Nc1nc(ncc1Cl)N2` (single isomer, unassigned) [E305], the IC50 in test [1] and in test [2] was at most 0.1 µM each time.

For `Cc1c2c(nn1C1CCOCC1(C)C)OCC[C@@H](C)Nc1nc(ncc1Cl)N2` (single isomer, unassigned) [E422], the IC50 in test [1] and in test [2] was at most 0.1 µM in each case.

For `Cc1c2c(nn1C1CCOCC1)OCCC(C)Nc1nc(ncc1C(F)(F)F)N2` (single isomer, unassigned) [E291, 4,11-Dimethyl-5-(oxan-4-yl)-14-(trifluoromethyl) -8-oxa-2,5,6,12,16,17-hexaazatricyclo[11.3.1.0^3,7]heptadeca-1(16),3,6,13(17),14-pentaene], the IC50 in test [1] and in test [2] was at most 0.1 µM in each case.

Take `C[C@@H]1CCOc2nn(C3CCN(C4COC4)CC3(F)F)c(Cl)c2Nc2ncc(Cl)c(n2)N1` (single isomer, unassigned) [E444]: the IC50 in test [1] and in test [2] was at most 0.1 µM each time.

Turning to `Cc1c2c(nn1C1CCN(C3COC3)CC1)OCC[C@@H](C)Nc1nc(ncc1Cl)N2` [E65, (11R)-14-chloro-4,11-dimethyl-5-[1-(oxetan-3-yl)piperidin-4-yl]-8-oxa-2,5,6,12,16,17-hexaazatricyclo[11.3.1.0^3,7]heptadeca-1(16),3,6,13(17),14-pentaene], the IC50 in test [1] and in test [2] was at most 0.1 µM throughout.

`Cc1c2c(nn1C1CN(C3CCOCC3)C1)OCCCNc1nc(ncc1Cl)N2` [E366, 14-Chloro-4-methyl-5-[1-(oxan-4-yl)azetidin-3-yl]-8-oxa-2,5,6,12, 16,17-hexaazatricyclo[11.3.1.0^3,7]heptadeca-1(16),3,6,13(17),14-pentaene]: the IC50 in test [1] and in test [2] was at most 0.1 µM throughout.

As for `C=C(C)c1cnc2nc1NCCCOc1nn(C3CCOCC3)c(C)c1N2` [E429, 4-Methyl-5-(oxan-4-yl)-14-(prop-1-en-2-yl)-8-oxa-2,5,6,12,16,17-hexaazatricyclo[11.3.1.0^3,7]heptadeca-1(16),3,6,13(17),14-pentaene], the IC50 in test [1] is at most 10 µM; in test [2], over 10 µM.
